Laboratory results taken from PubChem BioAssay (NCI).
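1) Cells in 96-well plates. 2) Compound, 48 h, 5 concentrations. 3) Linear interpolation between surrounding doses. 4) Unreached endpoint = highest concentration. TGI marks complete inhibition of growth.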

Key:
Test in all cases: inhibition of tumour cell growth, NCI panel, 48 h
[1] = tested on: 786-0 renal
[2] = tested on: A498 renal
[3] = tested on: A549 NSCLC
[4] = tested on: ACHN renal
[5] = tested on: BT-549 breast
[6] = tested on: CAKI-1 renal
[7] = tested on: COLO 205 colon
[8] = tested on: DU-145 prostate
[9] = tested on: EKVX NSCLC
[10] = tested on: HCC-2998 colon
[11] = tested on: HCT-116 colon
[12] = tested on: HCT-15 colon
[13] = tested on: HL-60(TB) leukemia
[14] = tested on: HOP-62 NSCLC
[15] = tested on: HOP-92 NSCLC
[16] = tested on: HS 578T breast
[17] = tested on: HT29 colon
[18] = tested on: IGROV1 ovarian
[19] = tested on: K-562 leukemia
[20] = tested on: KM12 colon
[21] = tested on: LOX IMVI melanoma
[22] = tested on: M14 melanoma
[23] = tested on: MCF7 breast
[24] = tested on: MDA-MB-231 breast
[25] = tested on: MDA-MB-435
[26] = tested on: MDA-N
[27] = tested on: MOLT-4 leukemia
[28] = tested on: NCI-H226 lung
[29] = tested on: NCI-H460 lung
[30] = tested on: NCI-H522 lung
[31] = tested on: NCI/ADR-RES ovarian
[32] = tested on: OVCAR-3 ovarian
[33] = tested on: OVCAR-4 ovarian
[34] = tested on: OVCAR-5 ovarian
[35] = tested on: OVCAR-8 ovarian
[36] = tested on: PC-3 prostate
[37] = tested on: RPMI-8226 leukemia
[38] = tested on: SF-268 CNS
[39] = tested on: SF-295 CNS
[40] = tested on: SF-539 CNS
[41] = tested on: SK-MEL-2 melanoma
[42] = tested on: SK-MEL-28 melanoma
[43] = tested on: SK-MEL-5 melanoma
[44] = tested on: SK-OV-3 ovarian
[45] = tested on: SN12C renal
[46] = tested on: SNB-19 CNS
[47] = tested on: SNB-75 CNS
[48] = tested on: SR leukemia
[49] = tested on: SW-620 colon
[50] = tested on: T-47D breast
[51] = tested on: TK-10 renal
[52] = tested on: U251 CNS
[53] = tested on: UACC-257 melanoma
[54] = tested on: UACC-62 melanoma
[55] = tested on: UO-31 renal

Measured: TGI

COC(=O)CN(CC1O[C@@H]2OC(C)(C)O[C@@H]2C1NC(C)=O)C(=O)OCc1ccccc1 (stereo not given in full)
> 100 µM: [1] | [2] | [3] | [4] | [5] | [6] | [7] | [8] | [9] | [10] | [11] | [12] | [13] | [14] | [15] | [16] | [17] | [18] | [19] | [20] | [21] | [22] | [23] | [24] | [25] | [26] | [27] | [28] | [29] | [30] | [31] | [32] | [33] | [34] | [35] | [36] | [37] | [38] | [39] | [40] | [41] | [42] | [43] | [44] | [45] | [46] | [47] | [48] | [49] | [50] | [51] | [52] | [53] | [54] | [55]
